Data set [1] addresses T1, recombinant human HDAC6 (Homo sapiens, UniProt Q9UBN7).
T1 sequence (Q9UBN7 1-1215): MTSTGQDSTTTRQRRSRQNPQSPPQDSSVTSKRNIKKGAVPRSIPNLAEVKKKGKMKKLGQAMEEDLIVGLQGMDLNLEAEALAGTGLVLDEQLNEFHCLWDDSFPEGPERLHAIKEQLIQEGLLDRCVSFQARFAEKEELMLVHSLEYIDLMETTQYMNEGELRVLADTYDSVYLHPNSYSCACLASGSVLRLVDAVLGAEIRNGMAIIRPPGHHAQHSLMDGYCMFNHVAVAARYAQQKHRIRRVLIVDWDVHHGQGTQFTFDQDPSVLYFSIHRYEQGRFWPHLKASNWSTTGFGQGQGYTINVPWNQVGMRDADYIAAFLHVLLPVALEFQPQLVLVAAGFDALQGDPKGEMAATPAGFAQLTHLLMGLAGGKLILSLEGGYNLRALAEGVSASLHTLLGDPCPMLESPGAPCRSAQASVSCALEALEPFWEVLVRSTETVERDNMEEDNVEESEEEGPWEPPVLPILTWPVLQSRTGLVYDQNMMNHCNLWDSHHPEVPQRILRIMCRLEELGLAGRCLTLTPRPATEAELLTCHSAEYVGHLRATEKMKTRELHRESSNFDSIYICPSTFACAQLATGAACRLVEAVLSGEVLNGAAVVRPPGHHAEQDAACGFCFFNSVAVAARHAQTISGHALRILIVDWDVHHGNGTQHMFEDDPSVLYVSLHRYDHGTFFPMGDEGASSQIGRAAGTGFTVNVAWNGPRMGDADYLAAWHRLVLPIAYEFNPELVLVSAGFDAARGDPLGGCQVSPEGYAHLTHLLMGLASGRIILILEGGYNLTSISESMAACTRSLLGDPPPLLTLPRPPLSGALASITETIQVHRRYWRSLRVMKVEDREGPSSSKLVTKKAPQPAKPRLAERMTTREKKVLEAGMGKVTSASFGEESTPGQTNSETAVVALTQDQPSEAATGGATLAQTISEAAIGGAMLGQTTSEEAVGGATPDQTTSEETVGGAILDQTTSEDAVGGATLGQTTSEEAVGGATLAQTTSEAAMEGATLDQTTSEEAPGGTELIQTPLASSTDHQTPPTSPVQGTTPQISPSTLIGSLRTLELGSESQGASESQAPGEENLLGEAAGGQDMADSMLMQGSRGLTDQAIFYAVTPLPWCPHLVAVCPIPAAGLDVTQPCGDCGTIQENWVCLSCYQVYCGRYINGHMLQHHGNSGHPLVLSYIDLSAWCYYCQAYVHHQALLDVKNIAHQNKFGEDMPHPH
Put plainly: Enzymatic screening on recombinant human HDAC6. Particulars: Table 2; read-out: HDAC6 IC50. In kind it is biochemical. On the procedure: Enzymatic activity on recombinant human HDAC6 and HDAC3 was evaluated (Table 2) for each synthesized compound.
After a period of incubation at 30° C. (incubation times vary for different isoforms and are shown in table 1) 25 μL of solution containing the substrate were added. As substrate, FLUOR DE LYS® deacetylase substrate (Enzo Life Sciences, cat #BML-K1104, FdL), FLUOR DE LYS®-Green substrate (Enzo Life Sciences, cat #BML-K1572 FdL_G) and trifluoroacetyl-L-lysine (Tfal)-2× concentrated solution in 25 mM Tris-HCl, pH 8, 130 mM NaCl 0.05% Tween-20 10% glycerol) were used. Following a reaction period at 30° C.

Data set [2] is described as follows: Stability to Phase I metabolism in rat S9 liver fraction. The conditions noted are these: after 90 min, 37° C. In kind it is in vitro ADME. Here is the method: Test compounds were incubated in rat and human liver S9 fraction at 37° C. up to 90 minutes in order to evaluate their stability to Phase I metabolism by hepatic enzymes. […] The reaction was stopped placing samples on ice bath and adding acidified acetonitrile. After centrifugation (10 minutes at 14000 rpm) an aliquot of the supernatant was diluted water, filtered with 0.45 μm regenerated cellulose syringe filters and injected in HPLC-UV or in LC-MS/MS. The percentages of the amount remaining at the various incubation times with respect to the initial amount were calculated. The intrinsic clearance was also calculated.

Data set [3] in a line: Stability in rat plasma. The conditions noted are these: after 4 hours, 37° C. In kind it is in vitro ADME. On the procedure: In order to evaluate the stability to circulating enzymes, test compounds were incubated in human and rat plasma at 37° C. in a thermostated oscillating bath. Each test compound was incubated at μM (50 μM when the samples were analysed by UV/HPLC, 1 or 2 μM when the samples were analysed by LC-MS/MS) concentration for 0, 15, 30 min and 1, 2 and 4 hours. The reaction was stopped placing tubes on ice bath and adding acidified acetonitrile. After centrifugation for 10 minutes at 14000 rpm, an aliquot of the supernatant was diluted with water, filtered with 0.45 μm syringe filters and injected in HPLC-UV or in LC-MS/MS. The percentages of amount remaining at the various times of incubation with respect to initial amount were calculated. The half-life in plasma was also calculated.

A word on the IC50: it is the midpoint of a concentration-inhibition curve. As for `O=C(NO)c1cc(F)c(Cn2nnnc2Cc2ccccn2)c(F)c1.O=C(O)C(F)(F)F` [comp. 135, 3,5-difluoro-4-[[5-(2-pyridylmethyl)tetrazol-1-yl]methyl]benzenecarbohydroxamic acid;2,2,2-trifluoroacetic acid], the IC50 in data set [1] worked out at 93 nM. Also, the “residual percentage in rat S9 fraction” value in data set [2] is given as 96%. Moreover, in data set [3], the “residual percentage in rat plasma” value is 78%.
The like results for `CCn1c(Sc2ccc(C(=O)NO)cc2)nnc1-c1ccc(F)cc1` [comp. 30, 4-[[4-ethyl-5-(4-fluorophenyl)-1,2,4-triazol-3-yl]sulfanyl]benzenecarbohydroxamic acid] were, in that order, 25 nM, 63% and 49%.
In the case of `O=C(NO)c1cc(F)c(Sc2nnc(-c3cnccn3)n2Cc2ccco2)c(F)c1` [comp. 139, 3,5-difluoro-4-[[4-(2-furylmethyl)-5-pyrazin-2-yl-1,2,4-triazol-3-yl]sulfanyl]benzenecarbohydroxamic acid], the IC50 in data set [1] is 18 nM. Besides, in data set [2], the “residual percentage in rat S9 fraction” value turned out to be 40%. Besides, in data set [3], the “residual percentage in rat plasma” value is 90%.
On to `Cn1c(Sc2c(F)cc(C(=O)NO)cc2F)nnc1-c1sc2ncccc2c1N` [comp. 99, 4-[[5-(3-aminothieno[2,3-b]pyridin-2-yl)-4-methyl-1,2,4-triazol-3-yl]sulfanyl]-3,5-difluoro-benzenecarbohydroxamic acid], for which, in data set [1], the IC50 turned out to be 7 nM. In addition, in data set [2], the “residual percentage in rat S9 fraction” value is on record as 108%. Moreover, the “residual percentage in rat plasma” value in data set [3] was 91%.
For `Cc1nc(Sc2ccc(C(=O)NO)cc2)nn1-c1ccc(Cl)cc1Cl` [comp. 62, 4-[[1-(2,4-dichlorophenyl)-5-methyl-1,2,4-triazol-3-yl]sulfanyl]benzenecarbohydroxamic acid], the half-inhibitory concentration (IC50) in data set [1] turned out to be 127 nM. The “residual percentage in rat S9 fraction” value in data set [2] stood at 55%. Besides, in data set [3], the “residual percentage in rat plasma” value is recorded as 83%.
On to `Cn1c(Sc2c(F)cc(C(=O)NO)cc2F)nnc1-c1cccnc1` [comp. 153, 3,5-difluoro-4-[[4-methyl-5-(3-pyridyl)-1,2,4-triazol-3-yl]sulfanyl]benzenecarbohydroxamic acid], for which, in data set [1], the IC50 is 25 nM. In data set [2], the “residual percentage in rat S9 fraction” value is recorded as 91%. Moreover, the “residual percentage in rat plasma” value in data set [3] is on record as 76%.
The like results for `Cc1nc2ccc(F)cc2cc1-c1nnc(Sc2c(F)cc(C(=O)NO)cc2F)n1C` [comp. 137, 3,5-difluoro-4-[[5-(6-fluoro-2-methyl-3-quinolyl)-4-methyl-1,2,4-triazol-3-yl]sulfanyl]benzenecarbohydroxamic acid] were, in that order, 14 nM, 52% and 100%.
With `COc1ccc(Cc2nnc(Cc3ccc(C(=O)NO)cc3)o2)cc1OC` [comp. 45, 4-[[5-[(3,4-dimethoxyphenyl)methyl]-1,3,4-oxadiazol-2-yl]methyl]benzenecarbohydroxamic acid], the IC50 in data set [1] worked out at 68 nM. The “residual percentage in rat S9 fraction” value in data set [2] is reported as 69%. Moreover, in data set [3], the “residual percentage in rat plasma” value was determined as 81%.
Regarding `O=C(NO)c1ccc(Cc2nnc(-c3ccccc3)o2)cc1` [comp. 68, 4-[(5-phenyl-1,3,4-oxadiazol-2-yl)methyl]benzenecarbohydroxamic acid], in data set [1], the IC50 came to 4 nM. In addition, in data set [2], the “residual percentage in rat S9 fraction” value was 34%. Besides, the “residual percentage in rat plasma” value in data set [3] was determined as 77%.
`O=C(NO)c1ccc(Cn2nnc(-c3ccccn3)n2)cc1` [comp. 89, 4-[[5-(2-pyridyl)tetrazol-2-yl]methyl]benzenecarbohydroxamic acid]: the IC50 in data set [1] came to 9 nM. Also, in data set [2], the “residual percentage in rat S9 fraction” value came to 97%. Moreover, the “residual percentage in rat plasma” value in data set [3] was determined as 70%.
The like results for `COc1ccc(-c2nnnn2Cc2ccc(C(=O)NO)cc2)cc1OCc1ccccc1` [comp. 71, 4-[[5-(3-benzyloxy-4-methoxy-phenyl)tetrazol-1-yl]methyl]benzenecarbohydroxamic acid] were, in that order, 52 nM, 58% and 4%.
The like results for `COc1ccc(-c2nnn(Cc3ccc(C(=O)NO)cc3)n2)cc1OCc1ccccc1` [comp. 70, 4-[[5-(3-benzyloxy-4-methoxy-phenyl)tetrazol-2-yl]methyl]benzenecarbohydroxamic acid] were, in that order, 9 nM, 18% and 79%.
The like results for `COc1ccc(-c2nnc(Cc3ccc(C(=O)NO)cc3)o2)cc1OC` [comp. 57, 4-[[5-(3,4-dimethoxyphenyl)-1,3,4-oxadiazol-2-yl]methyl]benzenecarbohydroxamic acid] were, in that order, 8 nM, 71% and 94%.
For `O=C(NO)c1ccc(Sc2nnc(-c3ccc(F)cc3)[nH]2)cc1` [comp. 29, 4-[[5-(4-fluorophenyl)-4H-1,2,4-triazol-3-yl]sulfanyl]benzenecarbohydroxamic acid], in data set [1], the IC50 was 19 nM. Further, the “residual percentage in rat S9 fraction” value in data set [2] turned out to be 74%. In addition, the “residual percentage in rat plasma” value in data set [3] was determined as 103%.
In the case of `O=C(NO)c1ccc(Cn2nnc(-c3ccc(S(F)(F)(F)(F)F)cc3)n2)cc1` [comp. 110, 4-[[5-[4-(pentafluoro-lambda6-sulfanyl)phenyl]tetrazol-2-yl]methyl]benzenecarbohydroxamic acid], the IC50 in data set [1] stood at 25 nM. Besides, in data set [2], the “residual percentage in rat S9 fraction” value is 16%. Further, in data set [3], the “residual percentage in rat plasma” value worked out at 92%.
Turning to `O=C(NO)c1cc(F)c(Cn2nnnc2-c2cccc(S(F)(F)(F)(F)F)c2)c(F)c1` [comp. 109, 3,5-difluoro-4-[[5-[3-(pentafluoro-lambda6-sulfanyl)phenyl]tetrazol-1-yl]methyl]benzenecarbohydroxamic acid], the IC50 in data set [1] was 35 nM. Further, the “residual percentage in rat S9 fraction” value in data set [2] was 72%. In data set [3], the “residual percentage in rat plasma” value amounted to 10%.
`O=C(NO)c1ccc(Sc2nnc(-c3c[nH]c4ccccc34)n2Cc2ccco2)cc1` [comp. 25, 4-[[4-(2-furylmethyl)-5-(1H-indol-3-yl)-1,2,4-triazol-3-yl]sulfanyl]benzenecarbohydroxamic acid;2,2,2-trifluoroacetic acid]: in data set [1], the IC50 was 47 nM. The “residual percentage in rat S9 fraction” value in data set [2] was 9%. In addition, the “residual percentage in rat plasma” value in data set [3] was 77%.
The like results for `O=C(NO)c1ccc(Cn2nnc(Cc3ccccc3)n2)cc1` [comp. 36, 4-[(5-benzyltetrazol-2-yl)methyl]benzenecarbohydroxamic acid] were, in that order, 52 nM, 38% and 60%.
